Data as given in US4180578A, “2,4-Diamino-5-(4'-methylthio)benzylpyrimidenes, compounds, compositions and method of use” (Ludwig Heumann, & Co. GmbH, priority 1977, dated 1979).
≈ marks a conversion by molar mass, not a printed value.

How the values were obtained:
in vivo = conditions: po, mouse, intragastral, safety limits p = 0.05 printed for TMP: lower 2105.5, upper 3629.8
Source text: 2,4-diamino-5-(3',5'-dimethoxy-4'-S-methyl)-
benzylpyrimidine (mouse, intragastral administration) (determined
according to J.T. Litchfield and F. Wilcoxon in "J. Pharmacol.

Enterococcus = test: MIC, serial dilution test, DST-Agar; format: cell-based; conditions: n = 2, DST-Agar, read-out: Geometrical mean value of MIC
Source text: (§1) MIC values in μg/ml (serial dilution test, DST-Agar)
(§2) Geometrical mean value of MIC in μg/ml

Proteus = test: MIC, serial dilution test, DST-Agar; format: cell-based; conditions: n = 3, DST-Agar, read-out: Geometrical mean value of MIC
Source text: as §1, §2

E. Coli = test: MIC, serial dilution test, DST-Agar; format: cell-based; conditions: Escherichia coli, n = 15, DST-Agar, read-out: Geometrical mean value of MIC
Source text: as §1, §2

Klebsiellae = test: MIC, serial dilution test, DST-Agar; format: cell-based; conditions: n = 3, DST-Agar, read-out: Geometrical mean value of MIC
Source text: as §1, §2

Serum level, rat = format: in vivo; conditions: po, 50 mg/kg i.g.
Experimental: |Serum level, rat (50 mg/kg i.g.)

COc1cc(Cc2cnc(N)nc2N)cc(OC)c1SC [2,4-diamino-5-(3',5-dimethoxy-4'-methylthio)-benzylpyrimidine]
LD50 (in vivo): > 5000 mg/kg | MIC (Enterococcus): 0.156 µg/mL (≈ 0.509 µM) | MIC (Proteus): 0.992 µg/mL (≈ 3.24 µM) | MIC (E. Coli): 0.142 µg/mL (≈ 0.463 µM) | MIC (Klebsiellae): 0.248 µg/mL (≈ 0.809 µM) | concentration at 0.5 h (Serum level, rat): 5000 ng/mL | concentration at 1 h (Serum level, rat): 2700 ng/mL

COc1cc(Cc2cnc(N)nc2N)cc(OC)c1OC [TMP, 2,4-diamino-5-(3'4',5'-trimethoxybenzyl)-pyrimidine]
LD50 (in vivo): 2760 mg/kg | MIC (Enterococcus): 0.078 µg/mL (≈ 0.269 µM) | MIC (Proteus): 0.625 µg/mL (≈ 2.15 µM) | MIC (E. Coli): 0.108 µg/mL (≈ 0.372 µM) | MIC (Klebsiellae): 0.496 µg/mL (≈ 1.71 µM) | concentration at 0.5 h (Serum level, rat): 4500 ng/mL | concentration at 1 h (Serum level, rat): 3300 ng/mL
